Source: the supplement of paper PMC10307832

What was measured:
Test in all cases: relative viability (nuclei count vs DMSO), 5 days (fraction); higher = more cells survive
LU99A = system: LU99A
Procedure, shortened: (§1)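 Relative viability was taken as the ratio of nuclei in treated wells to nuclei in vehicle wells. Lung cancer cell lines in 1536-well plates received compounds by pin tool one day after seeding, either one drug alone or a fixed anchor-drug dose plus five library-drug doses (not always all listed) in √10 steps. Nuclei were counted on 4× images after 5 days of treatment, and values are medians of duplicate plates.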

COR-L23 = system: COR-L23
Procedure, shortened: as §1

NCI-H441 = system: NCI-H441
Procedure, shortened: as §1

NCI-H1563 = system: NCI-H1563
Procedure, shortened: as §1

NCI-H838 = system: NCI-H838
Procedure, shortened: as §1

BEN = system: BEN
Procedure, shortened: as §1

NCI-H1651 = system: NCI-H1651
Procedure, shortened: as §1

LOU-NH91 = system: LOU-NH91
Procedure, shortened: as §1

NCI-H1437 = system: NCI-H1437
Procedure, shortened: as §1

NCI-H1793 = system: NCI-H1793
Procedure, shortened: as §1

NCI-H2085 = system: NCI-H2085
Procedure, shortened: as §1

For `CCN(CC)CCCCNc1ncc2cc(-c3cc(OC)cc(OC)c3)c(NC(=O)NC(C)(C)C)nc2n1` + COc1cc2c(Oc3ccc(NC(=O)C4(C(=O)Nc5ccc(F)cc5)CC4)cc3F)ccnc2cc1OCCCN1CCOCC1 [Foretinib] (partner 0.25 µM), the relative viability (LU99A; first compound 0.01 µM) was 0.828, the relative viability (LU99A; first compound 0.03162 µM) was 0.888 and the relative viability (LU99A; first compound 0.1 µM) was 0.91. The relative viability (LU99A; first compound 0.3162 µM) was 0.867, the relative viability (LU99A; first compound 1 µM) was 0.782 and the relative viability (COR-L23; first compound 0.01 µM) was 1.11. The relative viability (COR-L23; first compound 0.03162 µM) was 0.981, the relative viability (COR-L23; first compound 0.1 µM) was 1.14 and the relative viability (COR-L23; first compound 0.3162 µM) was 1.04. It also gave a relative viability (COR-L23; first compound 1 µM) of 1.05, a relative viability (NCI-H441; first compound 0.01 µM) of 1.02 and a relative viability (NCI-H441; first compound 0.03162 µM) of 1.19. For the same molecule, the relative viability (NCI-H441; first compound 0.1 µM) was 1.04, the relative viability (NCI-H441; first compound 0.3162 µM) was 1.04 and the relative viability (NCI-H441; first compound 1 µM) was 0.918. The relative viability (NCI-H1563; first compound 0.01 µM) was 0.921, the relative viability (NCI-H1563; first compound 0.03162 µM) was 0.896 and the relative viability (NCI-H1563; first compound 0.1 µM) was 1.03. It also gave a relative viability (NCI-H1563; first compound 0.3162 µM) of 0.907, a relative viability (NCI-H1563; first compound 1 µM) of 0.748 and a relative viability (NCI-H838; first compound 0.01 µM) of 1.01. For the same molecule, the relative viability (NCI-H838; first compound 0.03162 µM) was 0.958, the relative viability (NCI-H838; first compound 0.1 µM) was 1.19 and the relative viability (NCI-H838; first compound 0.3162 µM) was 0.986. It also gave a relative viability (NCI-H838; first compound 1 µM) of 0.789, a relative viability (BEN; first compound 0.01 µM) of 0.597 and a relative viability (BEN; first compound 0.03162 µM) of 0.544. It also gave a relative viability (BEN; first compound 0.1 µM) of 0.796, a relative viability (BEN; first compound 0.3162 µM) of 0.618 and a relative viability (BEN; first compound 1 µM) of 0.382. For the same molecule, the relative viability (NCI-H1651; first compound 0.01 µM) was 0.789, the relative viability (NCI-H1651; first compound 0.03162 µM) was 0.949 and the relative viability (NCI-H1651; first compound 0.1 µM) was 0.82. For the same molecule, the relative viability (NCI-H1651; first compound 0.3162 µM) was 0.761, the relative viability (NCI-H1651; first compound 1 µM) was 0.748 and the relative viability (LOU-NH91; first compound 0.01 µM) was 0.927. The relative viability (LOU-NH91; first compound 0.03162 µM) was 0.916, the relative viability (LOU-NH91; first compound 0.1 µM) was 0.959 and the relative viability (LOU-NH91; first compound 0.3162 µM) was 0.977. For the same molecule, the relative viability (LOU-NH91; first compound 1 µM) was 0.912, the relative viability (NCI-H1437; first compound 0.01 µM) was 1.47 and the relative viability (NCI-H1437; first compound 0.03162 µM) was 1.21. It also gave a relative viability (NCI-H1437; first compound 0.1 µM) of 1.3, a relative viability (NCI-H1437; first compound 0.3162 µM) of 1.3 and a relative viability (NCI-H1437; first compound 1 µM) of 1.16. For the same molecule, the relative viability (NCI-H1793; first compound 0.01 µM) was 0.734, the relative viability (NCI-H1793; first compound 0.03162 µM) was 0.759 and the relative viability (NCI-H1793; first compound 0.1 µM) was 0.716. It also gave a relative viability (NCI-H1793; first compound 0.3162 µM) of 0.676, a relative viability (NCI-H1793; first compound 1 µM) of 0.403 and a relative viability (NCI-H2085; first compound 0.01 µM) of 0.968. It also gave a relative viability (NCI-H2085; first compound 0.03162 µM) of 0.821, a relative viability (NCI-H2085; first compound 0.1 µM) of 1 and a relative viability (NCI-H2085; first compound 0.3162 µM) of 0.897. For the same molecule, the relative viability (NCI-H2085; first compound 1 µM) was 0.866.
